Measured values as given in the supplement of paper PMC11061612.

How the values were obtained:
PWR-1E (Non-Cancerous) [1] = experiment: combination Emax (second highest fraction inhibited in the dose matrix, 72 h); higher = more inhibition; extreme values may be limits of the assay
In short: (§1)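 After 24 hours at 37°C and 5% CO2 in 1536-well plates, cells in DMEM/F12 or RPMI plus 10% FBS received two-drug dose matrices for 72 hours. Viability came from CellTiter-Glo 2.0 luminescence and was scaled as inhibition, anchored at 0 by vehicle wells and at 1 by blank wells. Combination Emax is taken as the second-highest inhibition in the matrix, and Bliss excess as the observed combination effect less EA + EB − EA·EB, with EA and EB the single-agent effects.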

[2] = test system: HSC-4 (Oral Cavity Carcinoma); experiment: as above
In short: as §1

[3] = test system: SU8686 (Pancreatic Carcinoma); experiment: as above
In short: as §1

[4] = test system: NEC8 (Other Solid Carcinomas); experiment: as above
In short: as §1

[5] = test system: HOP-62 (Lung Adenocarcinoma); experiment: as above
In short: as §1

[6] = test system: SCC-15 (Oral Cavity Carcinoma); experiment: as above
In short: as §1

[7] = test system: OVCAR-4 (Ovarian Carcinoma); experiment: as above
In short: as §1

[8] = test system: OSC-20 (Oral Cavity Carcinoma); experiment: as above
In short: as §1

[9] = test system: TE-1 (Esophageal Squamous Cell Carcinoma); experiment: as above
In short: as §1

[10] = test system: OE19 (Esophageal Adenocarcinoma); experiment: as above
In short: as §1

[11] = test system: KMOE-2 (Acute Myeloid Leukemia); experiment: as above
In short: as §1

[12] = test system: HGC-27 (Gastric Carcinoma); experiment: as above
In short: as §1

[13] = test system: NCI-H1915 (Non-Small Cell Lung Carcinoma); experiment: as above
In short: as §1

[14] = test system: C-4-I (Cervical Carcinoma); experiment: as above
In short: as §1

[15] = test system: VA-ES-BJ (Other Solid Carcinomas); experiment: as above
In short: as §1

[16] = test system: NUGC-3 (Gastric Carcinoma); experiment: as above
In short: as §1

PWR-1E (Non-Cancerous) [17] = experiment: Bliss excess, mean over the matrix (fraction); higher = more synergy
In short: as §1

[18] = test system: HSC-4 (Oral Cavity Carcinoma); experiment: as above
In short: as §1

[19] = test system: SU8686 (Pancreatic Carcinoma); experiment: as above
In short: as §1

[20] = test system: NEC8 (Other Solid Carcinomas); experiment: as above
In short: as §1

[21] = test system: HOP-62 (Lung Adenocarcinoma); experiment: as above
In short: as §1

[22] = test system: SCC-15 (Oral Cavity Carcinoma); experiment: as above
In short: as §1

[23] = test system: OVCAR-4 (Ovarian Carcinoma); experiment: as above
In short: as §1

[24] = test system: OSC-20 (Oral Cavity Carcinoma); experiment: as above
In short: as §1

[25] = test system: TE-1 (Esophageal Squamous Cell Carcinoma); experiment: as above
In short: as §1

[26] = test system: OE19 (Esophageal Adenocarcinoma); experiment: as above
In short: as §1

[27] = test system: KMOE-2 (Acute Myeloid Leukemia); experiment: as above
In short: as §1

[28] = test system: HGC-27 (Gastric Carcinoma); experiment: as above
In short: as §1

[29] = test system: NCI-H1915 (Non-Small Cell Lung Carcinoma); experiment: as above
In short: as §1

[30] = test system: C-4-I (Cervical Carcinoma); experiment: as above
In short: as §1

[31] = test system: VA-ES-BJ (Other Solid Carcinomas); experiment: as above
In short: as §1

[32] = test system: NUGC-3 (Gastric Carcinoma); experiment: as above
In short: as §1
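Wherever Bliss excess, mean over the matrix is given: after 72 h of two-drug dosing.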

SMILES | combination Emax (PWR-1E (Non-Cancerous) [1]) | combination Emax [2] | combination Emax [3] | combination Emax [4] | combination Emax [5] | combination Emax [6] | combination Emax [7] | combination Emax [8] | combination Emax [9] | combination Emax [10] | combination Emax [11] | combination Emax [12] | combination Emax [13] | combination Emax [14] | combination Emax [15] | combination Emax [16] | Bliss excess (PWR-1E (Non-Cancerous) [17]) | Bliss excess [18] | Bliss excess [19] | Bliss excess [20] | Bliss excess [21] | Bliss excess [22] | Bliss excess [23] | Bliss excess [24] | Bliss excess [25] | Bliss excess [26] | Bliss excess [27] | Bliss excess [28] | Bliss excess [29] | Bliss excess [30] | Bliss excess [31] | Bliss excess [32]
C[C@@H](c1ccc2nccn2c1)n1nnc2ncc(-c3cnn(C)c3)nc21 [Savolitinib] + CN(CC[C@H](CSC1=CC=CC=C1)NC2=C(C=C(C=C2)S(=O)(=O)NC(=O)C3=CC=C(C=C3)N4CCC(CC4)[C@H](C5=CC=CC=C5C6=CC=C(C=C6)Cl)O)S(=O)(=O)C(F)(F)F)CCO [AZD4320] (first compound max 1 µM, 7x7, partner max 1 µM) | 0.211 | 0.24 | 0.173 | 0.302 | 0.122 | 0.29 | 0.126 | 0.129 | 0.289 | 0.22 | 0.59 | 0.233 | 0.132 | 0.234 | 0.182 | 0.279 | -0.0221 | -0.0591 | -0.0255 | -0.0021 | -0.0729 | -0.0604 | -0.0293 | -0.0626 | -0.0316 | -0.0091 | -0.0537 | -0.0098 | -0.0519 | -0.0399 | -0.029 | -0.0429
COc1nnc2ccc(N3CCC(c4ccc(OCCN5CCN(C)C(=O)[C@H]5C)cc4)CC3)nn12 [AZD5153] + CN(CC[C@H](CSC1=CC=CC=C1)NC2=C(C=C(C=C2)S(=O)(=O)NC(=O)C3=CC=C(C=C3)N4CCC(CC4)[C@H](C5=CC=CC=C5C6=CC=C(C=C6)Cl)O)S(=O)(=O)C(F)(F)F)CCO [AZD4320] (first compound max 1 µM, 7x7, partner max 1 µM) | 0.714 | 0.217 | 0.0559 | 0.962 | 0.635 | 0.39 | 0.458 | 0.132 | 0.485 | 0.501 | 0.993 | 0.772 | 0.57 | 0.762 | 0.517 | 0.639 | 0.0243 | -0.0287 | -0.0373 | 0.0236 | 0.011 | 0.001 | 0.0377 | -0.0543 | -0.0193 | 0.0208 | 0.0295 | -0.0329 | 0.0678 | 0.0692 | 0.0839 | 0.0423
CC(=O)c1c(C)c2cnc(Nc3ccc(N4CCNCC4)cn3)nc2n(C2CCCC2)c1=O [Palbociclib] + CN(CC[C@H](CSC1=CC=CC=C1)NC2=C(C=C(C=C2)S(=O)(=O)NC(=O)C3=CC=C(C=C3)N4CCC(CC4)[C@H](C5=CC=CC=C5C6=CC=C(C=C6)Cl)O)S(=O)(=O)C(F)(F)F)CCO [AZD4320] (first compound max 10 µM, 7x7, partner max 1 µM) | 0.278 | 0.0868 | 0.0398 | 0.209 | 0.332 | 0.206 | 0.22 | 0.182 | 0.439 | 0.467 | 0.96 | 0.764 | 0.491 | 0.372 | 0.309 | 0.714 | -0.0204 | -0.0833 | -0.0447 | -0.0337 | -0.0777 | -0.0694 | -0.0354 | -0.0381 | -0.0322 | -0.0369 | -0.0213 | 0.0123 | -0.0273 | -0.0686 | -0.0288 | -0.0659
